Source: patent US12662491B2 (Redona Therapeutics, Inc., priority 2020, dated 2026)

Each molecule was assayed against T1, Zcchc11 enzyme (Homo sapiens, UniProt Q5TAX3) (assay: TUTase assay (Zcchc11 assay, Lin28a-dependent polyuridylation of pre-let-7)). Conditions: Lin28a-dependent Zcchc11 (Z11) TUTase activity; read-out: Potency Lin28a-dep Z11 IC50.
T1 construct: made in house; host or cells: HEK293 cells (Zcchc11); E. coli Rosetta II (LIN28A)
T1 sequence (Q5TAX3 212-1420): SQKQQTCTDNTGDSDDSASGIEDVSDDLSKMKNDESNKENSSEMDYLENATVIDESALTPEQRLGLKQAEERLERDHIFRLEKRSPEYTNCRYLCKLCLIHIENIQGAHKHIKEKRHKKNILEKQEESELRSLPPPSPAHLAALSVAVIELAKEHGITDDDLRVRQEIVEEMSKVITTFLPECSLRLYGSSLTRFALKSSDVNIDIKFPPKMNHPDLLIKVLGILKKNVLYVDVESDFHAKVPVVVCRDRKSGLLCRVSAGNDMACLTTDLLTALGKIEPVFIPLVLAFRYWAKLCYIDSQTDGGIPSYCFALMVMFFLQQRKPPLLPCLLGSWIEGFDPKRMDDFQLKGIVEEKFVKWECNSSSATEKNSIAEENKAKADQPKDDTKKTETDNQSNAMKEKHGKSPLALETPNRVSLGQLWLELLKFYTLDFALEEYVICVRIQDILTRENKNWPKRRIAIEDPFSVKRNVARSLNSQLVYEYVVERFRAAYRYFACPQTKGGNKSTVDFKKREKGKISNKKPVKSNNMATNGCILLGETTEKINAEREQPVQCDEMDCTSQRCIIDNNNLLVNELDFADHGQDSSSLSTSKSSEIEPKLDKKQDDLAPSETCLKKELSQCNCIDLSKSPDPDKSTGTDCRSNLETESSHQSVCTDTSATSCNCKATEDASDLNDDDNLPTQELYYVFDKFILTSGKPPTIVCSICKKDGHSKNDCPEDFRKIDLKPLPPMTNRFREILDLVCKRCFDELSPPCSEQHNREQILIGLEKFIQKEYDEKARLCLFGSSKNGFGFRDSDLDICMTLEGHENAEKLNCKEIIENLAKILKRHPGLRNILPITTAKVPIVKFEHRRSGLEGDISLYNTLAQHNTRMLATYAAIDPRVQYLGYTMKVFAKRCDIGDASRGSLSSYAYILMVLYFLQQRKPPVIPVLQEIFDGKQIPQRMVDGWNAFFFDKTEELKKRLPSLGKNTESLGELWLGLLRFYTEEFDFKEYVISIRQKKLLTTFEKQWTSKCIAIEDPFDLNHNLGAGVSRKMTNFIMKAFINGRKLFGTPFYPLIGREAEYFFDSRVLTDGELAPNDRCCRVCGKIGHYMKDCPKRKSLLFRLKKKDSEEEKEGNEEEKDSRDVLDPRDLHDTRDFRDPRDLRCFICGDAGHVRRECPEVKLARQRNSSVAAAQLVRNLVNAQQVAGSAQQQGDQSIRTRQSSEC
Assay type: biochemical
In short: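 HEK293-expressed human Zcchc11 (residues 212-1420, 0.2 nM) with 10 nM LIN28A and 2 nM 5′-fluorescein pre-let-7, preincubated 30 min at room temperature, pH 7.3. Started with 5 uM UTP; poly(U) tails quenched by 3′-rhodamine A20 probe, read kinetically. IC50 from early-rate four-parameter fit; no-UTP wells define 0%.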

`CN(C)C1CN(c2ccc(-n3cc(C(=O)O)c(=O)c4cc(F)c(N5CC(c6cccnc6)C[C@@H]5COc5ncccc5Cl)cc43)cn2)C1` (single isomer, unassigned) [Compound 328] and `CN(C)C1CN(c2ccc(-n3cc(C(=O)O)c(=O)c4cc(F)c(N5C[C@@H](c6cccnc6)C[C@@H]5COc5ncccc5Cl)cc43)cn2)C1` (single isomer, unassigned) [Compound 329] cannot be ordered by IC50: no more than 1 µM for the first, no more than 1 µM for the second.

First: O=C(O)c1cn(C2CC2)c2c(F)c(N3CCC[C@@H]3COc3ccccn3)c(F)cc2c1=O [Compound 79, (R)-1-cyclopropyl-6,8-difluoro-4-oxo-7-(2-((pyridin-2-yloxy)methyl)pyrrolidin-1-yl)-1,4-dihydro-quinoline-3-carboxylic acid]
Second: O=C(O)c1cn(C2CC2)c2c(Cl)c(N3CCC[C@@H]3COc3ccccn3)c(F)cc2c1=O [Compound 91, (R)-8-chloro-1-cyclopropyl-6-fluoro-4-oxo-7-(2-((pyridin-2-yloxy)methyl)pyrrolidin-1-yl)-1,4-dihydro-quinoline-3-carboxylic acid]
The IC50 of the first is lower: 1 to 10 µM for the first, 10 to 50 µM for the second. The first is the more potent here.

First: O=C(O)c1cn(-c2ccc(O)cc2F)c2c(F)c(N3CCC[C@@H]3COc3ccccn3)c(F)cc2c1=O [Compound 80, (R)-6,8-difluoro-1-(2-fluoro-4-hydroxy-phenyl)-4-oxo-7-(2-((pyridin-2-yloxy)methyl)pyrrolidin-1-yl)-1,4-dihydro-quinoline-3-carboxylic acid]
Second: O=C(O)c1cn(-c2ccc(O)cc2F)c2c(F)c(N3CCC[C@H]3COc3ccccn3)c(F)cc2c1=O [Compound 82, (S)-6,8-difluoro-1-(2-fluoro-4-hydroxy-phenyl)-4-oxo-7-(2-((pyridin-2-yloxy)methyl)pyrrolidin-1-yl)-1,4-dihydro-quinoline-3-carboxylic acid]
The IC50 of the first is lower: 1 to 10 µM for the first, 10 to 50 µM for the second. The first is the more potent here.

First: O=C(O)c1cn(C2CC2)c2cc(N3CCC[C@H]3COc3ccccn3)c(F)cc2c1=O [Compound 81, (S)-1-cyclopropyl-6-fluoro-4-oxo-7-(2-((pyridin-2-yloxy)methyl)pyrrolidin-1-yl)-1,4-dihydro-quinoline-3-carboxylic acid]
Second: O=C(O)c1cn(C2CC2)c2cc(N3CCC[C@@H]3COc3ccccn3)c(F)cc2c1=O [Compound 87, (R)-1-cyclopropyl-6-fluoro-4-oxo-7-(2-((pyridin-2-yloxy)methyl)pyrrolidin-1-yl)-1,4-dihydro-quinoline-3-carboxylic acid]
The IC50 of the first is higher: 10 to 50 µM for the first, 1 to 10 µM for the second. The second is the more potent here.

`O=C(O)c1cn(-c2ccc(O)cc2F)c2cc(N3CCC[C@@H]3COc3ccccn3)c(F)cc2c1=O` [Compound 83, (R)-6-fluoro-1-(2-fluoro-4-hydroxy-phenyl)-4-oxo-7-(2-((pyridin-2-yloxy)methyl)pyrrolidin-1-yl)-1,4-dihydro-quinoline-3-carboxylic acid] and `O=C(O)c1cn(-c2ccc(F)cc2F)c2cc(N3CCC[C@@H]3COc3ccccn3)c(F)cc2c1=O` [Compound 84, (R)-1-(2,4-difluorophenyl)-6-fluoro-4-oxo-7-(2-((pyridin-2-yloxy)methyl)pyrrolidin-1-yl)-1,4-dihydro-quinoline-3-carboxylic acid] cannot be ordered by IC50: no more than 1 µM for the first, no more than 1 µM for the second.

`O=C(O)c1cn(-c2ccccc2)c2cc(N3CCC[C@@H]3COc3ccccn3)c(F)cc2c1=O` [Compound 85, (R)-6-fluoro-4-oxo-1-phenyl-7-(2-((pyridin-2-yloxy)methyl)pyrrolidin-1-yl)-1,4-dihydro-quinoline-3-carboxylic acid] and `Cc1ccnc(OC[C@H]2CCCN2c2cc3c(cc2F)c(=O)c(C(=O)O)cn3-c2ccccc2)c1` [Compound 94, (R)-6-fluoro-7-(2-(((4-methyl-pyridin-2-yl)oxy)methyl)pyrrolidin-1-yl)-4-oxo-1-phenyl-1,4-dihydro-quinoline-3-carboxylic acid] cannot be ordered by IC50: no more than 1 µM for the first, no more than 1 µM for the second.

`O=C(O)c1cn(-c2ccccc2)c2c(F)c(N3CCC[C@@H]3COc3ccccn3)c(F)cc2c1=O` [Compound 86, (R)-6,8-difluoro-4-oxo-1-phenyl-7-(2-((pyridin-2-yloxy)methyl)pyrrolidin-1-yl)-1,4-dihydro-quinoline-3-carboxylic acid] and `O=C(O)c1cn(-c2ccccc2)c2cc(N3CCC[C@@H]3COc3ncccc3F)c(F)cc2c1=O` [Compound 98, (R)-6-fluoro-7-(2-(((3-fluoropyridin-2-yl)oxy)methyl)pyrrolidin-1-yl)-4-oxo-1-phenyl-1,4-dihydro-quinoline-3-carboxylic acid] cannot be ordered by IC50: no more than 1 µM for the first, no more than 1 µM for the second.

`O=C(O)c1cn(-c2ncc(O)cn2)c2cc(N3CCC[C@@H]3COc3ccccn3)c(F)cc2c1=O` [Compound 88, (R)-6-fluoro-1-(5-hydroxy-pyrimidin-2-yl)-4-oxo-7-(2-((pyridin-2-yloxy)methyl)pyrrolidin-1-yl)-1,4-dihydro-quinoline-3-carboxylic acid] and `O=C(O)c1cn(-c2ccc(O)cc2F)c2cc(N3CCC[C@@H]3COc3ccccn3)c(Cl)cc2c1=O` [Compound 95, (R)-6-chloro-1-(2-fluoro-4-hydroxy-phenyl)-4-oxo-7-(2-((pyridin-2-yloxy)methyl)pyrrolidin-1-yl)-1,4-dihydro-quinoline-3-carboxylic acid] cannot be ordered by IC50: 1 to 10 µM for the first, no more than 1 µM for the second.

First: O=C(O)c1cn(-c2ccc(O)cc2F)c2cc(N3CCC[C@@H]3COc3cnccn3)c(F)cc2c1=O [Compound 89, (R)-6-fluoro-1-(2-fluoro-4-hydroxy-phenyl)-4-oxo-7-(2-((pyrazin-2-yloxy)methyl)pyrrolidin-1-yl)-1,4-dihydro-quinoline-3-carboxylic acid]
Second: O=C(O)c1cn(-c2ccc(O)cc2F)c2cc(N3CCC[C@@H]3COc3ccccc3)c(F)cc2c1=O [Compound 90, (R)-6-fluoro-1-(2-fluoro-4-hydroxy-phenyl)-4-oxo-7-(2-(phenoxy-methyl)pyrrolidin-1-yl)-1,4-dihydro-quinoline-3-carboxylic acid]
The IC50 of the first is lower: 10 to 50 µM for the first, greater than 50 µM for the second. The first is the more potent here.

`Cc1cccc(OC[C@H]2CCCN2c2cc3c(cc2F)c(=O)c(C(=O)O)cn3-c2ccccc2)n1` [Compound 92, (R)-6-fluoro-7-(2-(((6-methyl-pyridin-2-yl)oxy)methyl)pyrrolidin-1-yl)-4-oxo-1-phenyl-1,4-dihydro-quinoline-3-carboxylic acid] and `Cc1ccc(OC[C@H]2CCCN2c2cc3c(cc2F)c(=O)c(C(=O)O)cn3-c2ccccc2)nc1` [Compound 93, (R)-6-fluoro-7-(2-(((5-methyl-pyridin-2-yl)oxy)methyl)pyrrolidin-1-yl)-4-oxo-1-phenyl-1,4-dihydro-quinoline-3-carboxylic acid] cannot be ordered by IC50: no more than 1 µM for the first, no more than 1 µM for the second.

Compared with `O=C(O)c1cn(C2CC2)c2cc(N3CCC[C@@H]3COc3ccccc3)c(F)cc2c1=O` [Compound 96, (R)-1-cyclopropyl-6-fluoro-4-oxo-7-(2-(phenoxy-methyl)pyrrolidin-1-yl)-1,4-dihydro-quinoline-3-carboxylic acid], `O=C(O)c1cn(-c2ccccc2)c2cc(N3CCC[C@@H]3COc3ncccc3Cl)c(F)cc2c1=O` [Compound 97, (R)-7-(2-(((3-chloro-pyridin-2-yl)oxy)methyl)pyrrolidin-1-yl)-6-fluoro-4-oxo-1-phenyl-1,4-dihydro-quinoline-3-carboxylic acid] is lower in IC50: greater than 50 µM for the first, no more than 1 µM for the second.

Work on `COc1cccnc1OC[C@H]1CCCN1c1cc2c(cc1F)c(=O)c(C(=O)O)cn2-c1ccccc1` [Compound 99, (R)-6-fluoro-7-(2-(((3-methoxy-pyridin-2-yl)oxy)methyl)pyrrolidin-1-yl)-4-oxo-1-phenyl-1,4-dihydro-quinoline-3-carboxylic acid] yielded an IC50 of no more than 1 µM.
